In publication PMC8232551 (RSC Chemical Biology, 2020):
Peptide text beside a SMILES is read from it. * marks the point of attachment. Cbz = O=C(OCc1ccccc1)*

Assays:
HeLa cells = test: Live-cell confocal imaging of uptake of fluorescein-labelled peptides; type: cell-based; details: 1000 nM
HEK-293 cells = test: Apoptosis assay in HEK-293 cells; type: cell-based; details: HEK-293 non-cancer derived cells, 10 μM

Row | uptake into live HeLa cells (HeLa cells) | Structure (SMILES) | induction of apoptosis (HEK-293 cells)
1 | negligible uptake | O=C1OC2(c3ccc(O)cc3Oc3cc(O)ccc32)c2ccccc21 [fluorescein] | –
2 | – | CC(C)C[C@@H](C=O)NC(=O)[C@H](CC(C)C)NC(=O)[C@H](CC(C)C)NC(=O)OCc1ccccc1 [MG132] (Cbz-Leu-Leu-Leu-aldehyde) | did induce apoptosis
